In the supplement of paper PMC10307832:

Tests used:
Assay in all cases: relative viability (nuclei count vs DMSO), 5 days (fraction); higher = more cells survive
Staurosporine + Olaparib = compound: CN[C@@H]1C[C@H]2O[C@@](C)([C@@H]1OC)n1c3ccccc3c3c4c(c5c6ccccc6n2c5c31)C(=O)NC4 [Staurosporine] + O=C(c1cc(Cc2n[nH]c(=O)c3ccccc23)ccc1F)N1CCN(C(=O)C2CC2)CC1 [Olaparib] (partner 8 µM)
Outline: (§1)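 For relative viability, nuclei counts in treated wells were divided by those in vehicle wells. Lung cancer cell lines had been pin-tool dosed in 1536-well plates the day after seeding and cultured for 5 days, then fixed and stained in one step (final 0.05% Triton X-100, 1% formaldehyde, 1 ug/ml Hoechst) and imaged at 4×. Doses were one drug alone or a fixed anchor-drug dose plus five library-drug doses (not always all listed) in √10 steps, and values are duplicate-plate medians.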

[1] = compound: CN[C@@H]1C[C@H]2O[C@@](C)([C@@H]1OC)n1c3ccccc3c3c4c(c5c6ccccc6n2c5c31)C(=O)NC4 [Staurosporine] + N=C(N)NC(=N)NCCc1ccccc1 [Phenformin] (partner 250 µM)
Outline: as §1

Sulindac + Pictilisib = compound: CC1=C(CC(=O)O)c2cc(F)ccc2/C1=C\c1ccc([S+](C)[O-])cc1 [Sulindac] + CS(=O)(=O)N1CCN(Cc2cc3nc(-c4cccc5[nH]ncc45)nc(N4CCOCC4)c3s2)CC1 [Pictilisib] (partner 1 µM)
Outline: as §1

[2] = compound: O=c1[nH]cc(F)c(=O)[nH]1 [5-Fluorouracil] + C[C@@H](Oc1cc(-c2cnn(C3CCNCC3)c2)cnc1N)c1c(Cl)ccc(F)c1Cl [Crizotinib] (partner 1 µM)
Outline: as §1

| Cell Line | relative viability (Staurosporine + Olaparib; first compound 0.005 µM) | relative viability (Staurosporine + Olaparib; first compound 0.01581 µM) | relative viability (Staurosporine + Olaparib; first compound 0.05 µM) | relative viability (Staurosporine + Olaparib; first compound 0.1581 µM) | relative viability (Staurosporine + Olaparib; first compound 0.5 µM) | relative viability ([1]; first compound 0.005 µM) | relative viability ([1]; first compound 0.05 µM) | relative viability ([1]; first compound 0.1581 µM) | relative viability ([1]; first compound 0.5 µM) | relative viability (Sulindac + Pictilisib; first compound 0.08 µM) | relative viability (Sulindac + Pictilisib; first compound 0.253 µM) | relative viability (Sulindac + Pictilisib; first compound 0.8 µM) | relative viability (Sulindac + Pictilisib; first compound 2.53 µM) | relative viability (Sulindac + Pictilisib; first compound 8 µM) | relative viability ([2]; first compound 0.02 µM) | relative viability ([2]; first compound 0.2 µM) | relative viability ([2]; first compound 0.6325 µM) | relative viability ([2]; first compound 2 µM) | relative viability ([1]; first compound 0.01581 µM) |
| --- | --- | --- | --- | --- | --- | --- | --- | --- | --- | --- | --- | --- | --- | --- | --- | --- | --- | --- | --- |
| NCI-H23 | 0.232 | 0.138 | 0.183 | 0.135 | 0.102 | 0.763 | 0.351 | 0.174 | 0.161 | 0.423 | 0.525 | 0.387 | 0.536 | 0.517 | 0.613 | 0.619 | 0.415 | 0.305 | – |
| NCI-H322M | 0.831 | 0.691 | 0.556 | 0.411 | 0.345 | – | – | 0.289 | 0.248 | 0.579 | 0.508 | 0.419 | 0.545 | 0.539 | 1.09 | 0.807 | 0.699 | 0.491 | 0.348 |
| NCI-H358 | 0.519 | 0.403 | 0.0954 | 0.0798 | 0.058 | 0.337 | 0.0848 | 0.0499 | 0.0405 | 0.262 | 0.324 | 0.316 | 0.269 | 0.352 | 0.965 | 0.664 | 0.671 | 0.282 | 0.0847 |
| NCI-H441 | 0.352 | 0.319 | 0.205 | 0.176 | 0.115 | 0.817 | 0.246 | 0.202 | 0.102 | 0.627 | 0.452 | 0.373 | 0.469 | 0.603 | 0.511 | 0.767 | 0.388 | 0.333 | 0.259 |
| NCI-H460 | 0.27 | 0.134 | 0.159 | 0.0506 | 0.0242 | 0.301 | 0.071 | 0.0104 | 0.0069 | 0.366 | 0.359 | 0.219 | 0.381 | 0.394 | 1 | 0.44 | 0.186 | 0.0322 | 0.0818 |
| NCI-H520 | 0.347 | 0.302 | 0.211 | 0.138 | 0.139 | 0.758 | 0.394 | 0.25 | 0.166 | 0.336 | 0.3 | 0.235 | 0.251 | 0.366 | 0.819 | 0.832 | 0.6 | 0.372 | 0.233 |
| NCI-H596 | 0.854 | 0.542 | 0.302 | 0.25 | 0.297 | 0.797 | 0.383 | 0.249 | 0.194 | 0.391 | 0.378 | 0.413 | 0.37 | 0.411 | 0.971 | 0.788 | 0.64 | 0.578 | 0.323 |
| NCI-H647 | 0.275 | 0.199 | 0.0866 | 0.0394 | 0.0357 | 0.236 | 0.0846 | 0.0492 | 0.0636 | 0.49 | 0.422 | 0.435 | 0.419 | 0.735 | 1.13 | 1.1 | 0.941 | 0.692 | 0.0676 |
| NCI-H650 | 0.313 | 0.246 | 0.25 | 0.229 | 0.124 | 0.285 | 0.26 | 0.189 | 0.164 | 0.839 | 0.889 | 0.785 | 0.915 | 0.912 | 0.61 | 0.589 | 0.46 | 0.421 | 0.257 |
| NCI-H661 | 0.65 | 0.556 | 0.521 | 0.333 | 0.175 | 0.277 | 0.27 | 0.19 | 0.131 | 0.421 | 0.412 | 0.358 | 0.514 | 0.461 | 0.973 | 1.11 | 1.05 | 1.02 | 0.235 |
| NCI-H727 | 0.638 | 0.422 | 0.413 | 0.434 | 0.419 | 0.404 | 0.379 | 0.219 | 0.146 | 0.46 | 0.252 | 0.381 | 0.404 | 0.349 | 1.07 | 1.05 | 0.891 | 0.703 | 0.319 |
| NCI-H838 | 0.24 | 0.175 | 0.154 | 0.122 | 0.0873 | 0.208 | 0.136 | 0.125 | 0.0931 | 0.519 | 0.466 | 0.377 | 0.426 | 0.603 | 0.873 | 0.809 | 0.498 | 0.297 | 0.139 |
| NCI-H1355 | 0.751 | 0.289 | 0.253 | 0.185 | 0.173 | 0.369 | 0.255 | 0.168 | 0.162 | 0.458 | 0.407 | 0.36 | 0.39 | 0.448 | 1.04 | 0.672 | 0.373 | 0.266 | 0.165 |
| NCI-H1437 | 0.506 | 0.456 | 0.401 | 0.168 | 0.106 | 0.247 | 0.187 | 0.11 | 0.118 | 0.417 | 0.504 | 0.405 | 0.386 | 0.489 | – | 0.257 | 0.2 | 0.155 | – |
| NCI-H1650 | 0.703 | 0.598 | 0.385 | 0.306 | 0.0918 | 0.217 | 0.109 | 0.108 | 0.0714 | 0.64 | 0.676 | 0.413 | 0.555 | 0.719 | 0.859 | 0.801 | 0.505 | 0.367 | 0.147 |
